# ChEMBL document CHEMBL1201862, “PubChem BioAssay data set” (2004)
#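 Test compounds were applied to cells in 96-well plates for 48 hours at 5 doses. GI50 = concentration required for 50% inhibition of growth.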 Calls of active or inactive are those of the source. No stated cut-off is given here; in the data, active = GI50 up to about 1.1 µM and inactive = higher.
# Legend:
# Assay in all cases: growth of human tumour cells (NCI), 48 h
# SK-MEL-5 = tested on: SK-MEL-5
# U-251 = tested on: U-251
# SK-MEL-2 = tested on: SK-MEL-2
# RXF 393 = tested on: RXF 393
# M14 = tested on: M14
# SF-539 = tested on: SF-539
# BT-549 = tested on: BT-549
# Malme-3M = tested on: Malme-3M
# LOX IMVI = tested on: LOX IMVI
# Hs-578T = tested on: Hs-578T
# SK-MEL-28 = tested on: SK-MEL-28
# RPMI-8226 = tested on: RPMI-8226
# UO-31 = tested on: UO-31
# T47D = tested on: T47D
# NCI-H460 = tested on: NCI-H460
# IGROV-1 = tested on: IGROV-1
# SF-268 = tested on: SF-268
# UACC-257 = tested on: UACC-257
# TK-10 = tested on: TK-10
# EKVX = tested on: EKVX
SMILES,GI50 (SK-MEL-5),GI50 (U-251),GI50 (SK-MEL-2),GI50 (RXF 393),GI50 (M14),GI50 (SF-539),GI50 (BT-549),GI50 (Malme-3M),GI50 (LOX IMVI),GI50 (Hs-578T),GI50 (SK-MEL-28),GI50 (RPMI-8226),GI50 (UO-31),GI50 (T47D),GI50 (NCI-H460),GI50 (IGROV-1),GI50 (SF-268),GI50 (UACC-257),GI50 (TK-10),GI50 (EKVX)
CCC1NC(=O)C(NC(=O)c2ncccc2O)C(C)OC(=O)C(c2ccccc2)NC(=O)C2CC(=O)CCN2C(=O)C(Cc2ccccc2)N(C)C(=O)C2CCCN2C1=O (stereo unspecified),> 100 µM (inactive),> 100 µM (inactive),> 100 µM (inactive),> 100 µM (inactive),> 100 µM (inactive),> 100 µM (inactive),> 100 µM (inactive),> 100 µM (inactive),> 100 µM (inactive),> 100 µM (inactive),> 100 µM (inactive),> 100 µM (inactive),> 100 µM (inactive),> 100 µM (inactive),> 100 µM (inactive),> 100 µM (inactive),> 100 µM (inactive),> 100 µM (inactive),> 100 µM (inactive),–
COc1ccc(-c2cc(-c3ccccc3)nc(N)c2-c2ccc3ccccc3c2)cc1,1.77 µM (inactive),1.95 µM (inactive),1.82 µM (inactive),1.82 µM (inactive),2.53 µM (inactive),2.1 µM (inactive),1.64 µM (inactive),1.25 µM (inactive),1.72 µM (inactive),1.65 µM (inactive),1.95 µM (inactive),2.13 µM (inactive),1.99 µM (inactive),1.69 µM (inactive),1.52 µM (inactive),1.68 µM (inactive),3.3 µM (inactive),1.86 µM (inactive),3.15 µM (inactive),1.83 µM (inactive)
CC(=O)OCC1OC(N2C(C)=C(C(C)=O)C(c3ccco3)C(C#N)=C2S)C(OC(C)=O)C(OC(C)=O)C1OC(C)=O (stereo unspecified),> 100 µM (inactive),> 100 µM (inactive),> 100 µM (inactive),> 100 µM (inactive),> 100 µM (inactive),> 100 µM (inactive),> 100 µM (inactive),> 100 µM (inactive),> 100 µM (inactive),> 100 µM (inactive),> 100 µM (inactive),> 100 µM (inactive),81.1 µM (inactive),78.7 µM (inactive),> 100 µM (inactive),> 100 µM (inactive),> 100 µM (inactive),> 100 µM (inactive),> 100 µM (inactive),–
Cc1ccc(CC(Cc2ccc(C)cc2C(=O)O)C(=O)O)cc1 (stereo unspecified),> 100 µM (inactive),> 100 µM (inactive),> 100 µM (inactive),> 100 µM (inactive),> 100 µM (inactive),> 100 µM (inactive),> 100 µM (inactive),> 100 µM (inactive),> 100 µM (inactive),> 100 µM (inactive),> 100 µM (inactive),> 100 µM (inactive),> 100 µM (inactive),> 100 µM (inactive),> 100 µM (inactive),> 100 µM (inactive),> 100 µM (inactive),> 100 µM (inactive),> 100 µM (inactive),> 100 µM (inactive)
COc1ccc(C2SCC(=O)N2NC2=NC(=O)CC(=O)N2)cc1 (stereo unspecified),> 100 µM (inactive),> 100 µM (inactive),> 100 µM (inactive),> 100 µM (inactive),> 100 µM (inactive),> 100 µM (inactive),> 100 µM (inactive),> 100 µM (inactive),–,> 100 µM (inactive),> 100 µM (inactive),> 100 µM (inactive),> 100 µM (inactive),> 100 µM (inactive),> 100 µM (inactive),> 100 µM (inactive),> 100 µM (inactive),> 100 µM (inactive),> 100 µM (inactive),–
C\C(=N/N=C1/C(=C\N(C)C)C(=O)NC(=O)N1C)c1ccc(Cl)cc1,> 100 µM (inactive),> 100 µM (inactive),57.9 µM (inactive),> 100 µM (inactive),43.2 µM (inactive),> 100 µM (inactive),> 100 µM (inactive),> 100 µM (inactive),58.2 µM (inactive),> 100 µM (inactive),> 100 µM (inactive),26.9 µM (inactive),> 100 µM (inactive),82.4 µM (inactive),> 100 µM (inactive),53 µM (inactive),> 100 µM (inactive),> 100 µM (inactive),57.3 µM (inactive),> 100 µM (inactive)
CCC1=NC(N/N=C/c2ccccc2O)=N/C1=C\c1ccccc1O,19.5 µM (inactive),19.3 µM (inactive),12.6 µM (inactive),18.3 µM (inactive),10.1 µM (inactive),–,12.1 µM (inactive),12.4 µM (inactive),5.61 µM (inactive),23.9 µM (inactive),23.7 µM (inactive),12.9 µM (inactive),2.7 µM (inactive),12.1 µM (inactive),2.57 µM (inactive),11.5 µM (inactive),4.98 µM (inactive),14.8 µM (inactive),11.2 µM (inactive),10.2 µM (inactive)
COc1ccc2c(c1)-c1c(c3cc(OC)ccc3n1CCN(C)C)CC2,12.4 µM (inactive),11.2 µM (inactive),14.5 µM (inactive),13.5 µM (inactive),13.7 µM (inactive),15.4 µM (inactive),13.9 µM (inactive),16.1 µM (inactive),–,13.7 µM (inactive),15.9 µM (inactive),12.1 µM (inactive),11.1 µM (inactive),17.6 µM (inactive),12.2 µM (inactive),12.1 µM (inactive),18.3 µM (inactive),15.6 µM (inactive),15.5 µM (inactive),–
CC1=NN(c2nc(N)nc(CC#N)n2)C(C)(C)C1,> 100 µM (inactive),> 100 µM (inactive),> 100 µM (inactive),> 100 µM (inactive),> 100 µM (inactive),> 100 µM (inactive),> 100 µM (inactive),–,> 100 µM (inactive),> 100 µM (inactive),> 100 µM (inactive),> 100 µM (inactive),> 100 µM (inactive),> 100 µM (inactive),> 100 µM (inactive),> 100 µM (inactive),> 100 µM (inactive),> 100 µM (inactive),> 100 µM (inactive),> 100 µM (inactive)
CCOP(=O)(OCC)/C(C#N)=C/c1ccnc2ccccc12,23.3 µM (inactive),51.8 µM (inactive),25 µM (inactive),23.2 µM (inactive),20.1 µM (inactive),26.5 µM (inactive),23.9 µM (inactive),14 µM (inactive),31.6 µM (inactive),23.7 µM (inactive),34.6 µM (inactive),44.7 µM (inactive),< 0.01 µM (active),55 µM (inactive),43.6 µM (inactive),45 µM (inactive),18.4 µM (inactive),51.3 µM (inactive),47.1 µM (inactive),53.3 µM (inactive)
S=c1[nH]c2ccc(Br)cc2c(=S)s1,16.5 µM (inactive),22.9 µM (inactive),20.6 µM (inactive),27.6 µM (inactive),30.5 µM (inactive),34.4 µM (inactive),29.9 µM (inactive),33.3 µM (inactive),32.4 µM (inactive),40.5 µM (inactive),52.7 µM (inactive),29.2 µM (inactive),22.1 µM (inactive),22.5 µM (inactive),22.1 µM (inactive),22.1 µM (inactive),34.4 µM (inactive),23.5 µM (inactive),32.9 µM (inactive),27.8 µM (inactive)
CC1=C(/C=C/C(C)=C/C=C/C(C)=C/C(=O)OCC2OC(n3cc(F)c(=O)[nH]c3=O)CC2OC(=O)/C=C(C)/C=C/C=C(C)/C=C/C2=C(C)CCCC2(C)C)C(C)(C)CCC1 (stereo unspecified),3.08 µM (inactive),4.15 µM (inactive),58.6 µM (inactive),22.3 µM (inactive),3.81 µM (inactive),0.314 µM (active),29.6 µM (inactive),7.43 µM (inactive),3.48 µM (inactive),9.25 µM (inactive),20.9 µM (inactive),0.796 µM (active),0.94 µM (active),15.7 µM (inactive),0.0659 µM (active),6.32 µM (inactive),0.618 µM (active),9.23 µM (inactive),21.6 µM (inactive),> 54.3 µM (inactive)
Cc1ccc2c(c1)nc1n2C(N)=Nc2ccccc2S1,28.2 µM (inactive),> 27.9 µM (inactive),> 100 µM (inactive),> 100 µM (inactive),3.44 µM (inactive),> 95.5 µM (inactive),> 100 µM (inactive),> 100 µM (inactive),3.51 µM (inactive),> 73.5 µM (inactive),> 100 µM (inactive),19.6 µM (inactive),50.4 µM (inactive),46.6 µM (inactive),5.92 µM (inactive),6.4 µM (inactive),48.1 µM (inactive),> 67.5 µM (inactive),> 100 µM (inactive),36.4 µM (inactive)
O=c1cc(O)c2c(O)cc(O)cc2o1,> 100 µM (inactive),> 100 µM (inactive),> 100 µM (inactive),> 100 µM (inactive),> 100 µM (inactive),> 100 µM (inactive),> 100 µM (inactive),> 100 µM (inactive),> 100 µM (inactive),> 100 µM (inactive),> 100 µM (inactive),> 100 µM (inactive),–,> 100 µM (inactive),> 100 µM (inactive),> 100 µM (inactive),> 100 µM (inactive),> 100 µM (inactive),> 100 µM (inactive),> 100 µM (inactive)
